Measured values published in patent US7566712B2, “Biaryl piperazinyl-pyridine analogues” (Neurogen Corporation, priority 2003, dated 2009).

molecular target: T1, human capsaicin receptor (Homo sapiens, UniProt Q8NER1); test: Calcium mobilization assay, determination of antagonist activity (Example 6); assay type: cell-based; details: Table II; determined as described in Example 6 (antagonist activity); "*" = 1 micromolar or less
T1 construct: pBK-CMV expression construct encoding the full length human capsaicin receptor; expressed in transfected cells
Summary of the method: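 HEK293 clonal lines stably expressing full-length human capsaicin receptor, loaded with Fluo-3 AM in KRH buffer pH 7.4, 1–2 h at 37 °C. Compounds (1–5 μM final) preincubated 0.5–6 h at room temperature, then capsaicin at its EC50 added. FLIPR/Fluoroskan calcium signal; IC50 as 50% decrease of capsaicin response.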

T1 sequence (Q8NER1 whole entry): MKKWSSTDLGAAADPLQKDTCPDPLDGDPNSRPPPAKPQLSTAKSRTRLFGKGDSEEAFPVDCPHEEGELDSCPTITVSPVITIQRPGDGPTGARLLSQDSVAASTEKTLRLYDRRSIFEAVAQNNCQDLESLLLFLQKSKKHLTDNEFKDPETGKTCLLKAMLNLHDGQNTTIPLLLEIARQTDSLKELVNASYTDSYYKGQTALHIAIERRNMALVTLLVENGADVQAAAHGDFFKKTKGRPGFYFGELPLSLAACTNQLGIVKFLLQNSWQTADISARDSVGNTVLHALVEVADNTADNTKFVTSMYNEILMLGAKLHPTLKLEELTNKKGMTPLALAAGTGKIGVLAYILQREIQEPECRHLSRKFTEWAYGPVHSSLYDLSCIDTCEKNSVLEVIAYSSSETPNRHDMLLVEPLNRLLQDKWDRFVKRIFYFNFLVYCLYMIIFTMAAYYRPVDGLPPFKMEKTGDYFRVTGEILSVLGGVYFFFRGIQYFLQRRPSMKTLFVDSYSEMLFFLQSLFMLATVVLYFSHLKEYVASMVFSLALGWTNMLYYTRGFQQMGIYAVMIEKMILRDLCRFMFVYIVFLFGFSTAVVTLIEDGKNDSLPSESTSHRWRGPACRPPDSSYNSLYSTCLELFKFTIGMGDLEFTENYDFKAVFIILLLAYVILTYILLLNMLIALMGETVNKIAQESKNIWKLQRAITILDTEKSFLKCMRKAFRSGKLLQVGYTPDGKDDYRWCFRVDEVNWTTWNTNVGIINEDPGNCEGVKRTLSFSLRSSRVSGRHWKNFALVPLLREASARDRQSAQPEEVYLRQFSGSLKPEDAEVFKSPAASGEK

IC50 [nM] | Structure (SMILES)
≤ 1000 | O[C@H]1CCN(c2nc(-c3ccc(F)c(Cl)c3)cc(N3CCN(c4ncccc4C(F)(F)F)CC3)n2)C1 [Example 772, (3S)-1-(4-(3-chloro-4-fluorophenyl)-6-{4-[3-(trifluoromethyl)pyridin-2-yl]piperazin-1-yl}pyrimidin-2-yl)pyrrolidin-3-oI]
≤ 1000 | OC1CN(c2nc(-c3ccc(F)c(Cl)c3)cc(N3CCN(c4ncccc4C(F)(F)F)CC3)n2)C1 [Example 774, 1-(4-(3-chloro-4-fluorophenyl)-6-{4-[3-(trifluoromethyl)pyridin-2-yl]piperazin-1-yl}pyrimidin-2-yl)azetidin-3-ol]
≤ 1000 | Fc1ccc(-c2cc(N3CCN(c4ncccc4C(F)(F)F)CC3)nc(N3C[C@H]4C[C@@H]3CN4)n2)cc1Cl [Example 775, (1R,4R)-2-(4-(3-chloro-4-fluorophenyl)-6-{4-[3-(trifluoromethyl)pyridin-2-yl]piperazin-1-yl}pyrimidin-2-yl)-2,5-diazabicyclo[2.2.1]heptane]
≤ 1000 | COC1CN(c2nc(-c3ccc(F)c(Cl)c3)cc(N3CCN(c4ncccc4C(F)(F)F)CC3)n2)C1 [Example 776, 4-(3-chloro-4-fluorophenyl)-2-(3-methoxyazetidin-1-yl)-6-{4-[3-(trifluoromethyl)pyridin-2-yl]piperazin-1-yl}pyrimidine]
≤ 1000 | CCCN1C[C@H]2C[C@@H]1CN2c1nc(-c2ccc(F)c(Cl)c2)cc(N2CCN(c3ncccc3C(F)(F)F)CC2)n1 [Example 777, (1R,4R)-2-(4-(3-chloro-4-fluorophenyl)-6-{4-[3-(trifluoromethyl)pyridin-2-yl]piperazin-1-yl}pyrimidin-2-yl)-5-propyl-2,5-diazabicyclo[2.2.1]heptane]
≤ 1000 | CC1(O)CN(c2nc(-c3ccc(F)c(Cl)c3)cc(N3CCN(c4ncccc4C(F)(F)F)CC3)n2)C1 [Example 778, 1-(4-(3-chloro-4-fluorophenyl)-6-{4-[3-(trifluoromethyl)pyridin-2-yl]piperazin-1-yl}pyrimidin-2-yl)-3-methylazetidin-3-oI]
≤ 1000 | CCCN1CCN(c2nc(-c3ccc(F)c(Cl)c3)cc(N3CCN(c4ncccc4Cl)C[C@H]3C)n2)CC1 [Example 779, 4-(3-chloro-4-fluorophenyl)-6-[(2R)-4-(3-chloropyridin-2-yl)-2-methylpiperazin-1-yl]-2-(4-propylpiperazin-1-yl)pyrimidine]
≤ 1000 | CC1CCN1c1nc(-c2ccc(F)c(Cl)c2)cc(N2CCN(c3ncccc3Cl)C[C@H]2C)n1 (stereo partly drawn) [Example 780, 4-(3-ohloro-4-fluorophenyi)-6-[(2R)-4-(3-chloropyridin-2-yl)-2-methylpiperazin-1-yl]-2-(2-methylazetidin-1-yl)pyrimidine]
≤ 1000 | CC1CCN1c1nc(-c2ccc(F)c(Cl)c2)cc(N2CCN(c3ncccc3C(F)(F)F)C[C@H]2C)n1 (stereo partly drawn) [Example 781, 4-(3-chloro-4-fluorophenyl)-2-(2-methylazetidin-1-yl)-6-{(2R)-2-methyl-4-[3-(trifluoromethyl)pyridin-2-yl]piperazin-1-yl}pyrimidine]
≤ 1000 | C[C@@H]1CN(c2ncccc2C(F)(F)F)CCN1c1cc(-c2ccc(F)cc2)nc(N2CCCC2)n1 [Example 782, 4-(4-fluorophenyl)-6-{(2R)-2-methyl-4-[3-(trifluoromethyl)pyridin-2-yl]piperazin-1-yl}-2-pyrrolidin-1-ylpyrirnidine]
≤ 1000 | CC1CCCN1c1nc(-c2ccc(F)cc2)cc(N2CCN(c3ncccc3C(F)(F)F)C[C@H]2C)n1 (stereo partly drawn) [Example 783, 4-(4-fluorophenyl)-2-(2-methylpyrrolidin-1-yl)-6-{(2R)-2-methyl-4-[3-(trifluoromethyl)pyridin-2-yl]piperazin-1-yl}pyrimidine]
≤ 1000 | C[C@@H]1CN(c2ncccc2C(F)(F)F)CCN1c1cc(-c2ccc(F)cc2)nc(N2CCCCC2)n1 [Example 784, 4-(4-fluorophenyl)-6-{(2R)-2-methyl-4-[3-(trifluoromethyl)pyridin-2-yl]piperazin-1-yl}-2-piperidin-1-ylpyrimidine]
≤ 1000 | Cc1cc(-c2cc(N3CCN(c4ncccc4Cl)C[C@H]3C)nc(N3CCC3C)n2)ccc1F (stereo partly drawn) [Example 785, 4-[(2R)-4-(3-chloropyridin-2-yl)-2-methylpiperazin-1-yl]-6-(4-fluoro-3-methylphenyl)-2-(2-methylazetidin-1-yl)pyrimidine]
≤ 1000 | Cc1cc(-c2cc(N3CCN(c4ncccc4C(F)(F)F)C[C@H]3C)nc(N3CCC3C)n2)ccc1F (stereo partly drawn) [Example 786, 4-(4-fluoro-3-methyiphenyl)-2-(2-methylazetidin-1-yl)-6-{(2R)-2-methyl-4-[3-(trifluoromethyl)pyridin-2-yl]piperazin-1-yl}pyrimidine]
≤ 1000 | CCCN1CCN(c2nc(-c3ccc(F)c(C)c3)cc(N3CCN(c4ncccc4C(F)(F)F)C[C@H]3C)n2)CC1 [Example 787, 4-(4-fluoro-3-methylphenyl)-6-{(2R)-2-methyl-4-[3-(trifluoromethyl)pyridin-2-yl]piperazin-1-yl}-2-(4-propylpiperazin-1-yl)pyrimidine]
≤ 1000 | CCCN1CCN(c2nc(-c3ccc(F)c(F)c3)cc(N3CCN(c4ncccc4Cl)C[C@H]3C)n2)CC1 [Example 788, 4-[(2R)-4-(3-chloropyridin-2-yl)-2-methylpiperazin-1-yl]-6-(3,4-difluorophenyl)-2-(4-propylpiperazin-1-yl)pyrimidine]
≤ 1000 | CN(C)C1CN(c2nc(-c3ccc(F)c(Cl)c3)cc(N3CCN(c4ncccc4C(F)(F)F)CC3)n2)C1 [Example 789, 1-(4-(3-chloro-4-fluorophenyl)-6-{4-[3-(trifluoromethyl)pyridin-2-yl]piperazin-1-yl}pyrimidin-2-yl)-N,N-dimethylazetidin-3-amine]
≤ 1000 | CCN(CC)C1CN(c2nc(-c3ccc(F)c(Cl)c3)cc(N3CCN(c4ncccc4C(F)(F)F)CC3)n2)C1 [Example 790, 1-(4-(3-chloro-4-fluorophenyl)-6-{4-[3-(trifluoromethyl)pyridin-2-yl]piperazin-1-yl}pyrimidin-2-yl)-N,N-diethylazetidin-3-amine]
≤ 1000 | C[C@@H]1CN(c2ncccc2C(F)(F)F)CCN1c1cc(-c2ccc(F)c(F)c2)nc(N2CCCC2)n1 [Example 791, 4-(3,4-difluorophenyl)-6-{(2R)-2-methyl-4-[3-(trifluoromethyl)pyridin-2-yl]piperazin-1-yl}-2-pyrrolidin-1-ylpyrimidine]
≤ 1000 | CC1CCCN1c1nc(-c2ccc(F)c(F)c2)cc(N2CCN(c3ncccc3C(F)(F)F)C[C@H]2C)n1 (stereo partly drawn) [Example 792, 4-(3,4-difluorophenyl)-2-(2-methylpyrrolidin-1-yl)-6-{(2R)-2-methyl-4-[3-(trifluoromethyl)pyridin-2-yl]piperazin-1-yl}pyrimidine]

same assay, conditions: determined as described in Example 6 (calcium mobilization, antagonist activity); Table II

IC50 [nM] | Structure (SMILES)
≤ 1000 | C[C@@H]1CN(c2ncccc2C(F)(F)F)CCN1c1cc(-c2ccc(F)c(Cl)c2)nc(N2CCCC2)n1 [Example 763, 4-(3-chloro-4-fluorophenyl)-6-{(2R)-2-methyl-4-[3-(trifluoromethyl)pyridin-2-yl]piperazin-1-yl}-2-pyrrolidin-1-ylpyrimidine]
≤ 1000 | CC1CCCN1c1nc(-c2ccc(F)c(Cl)c2)cc(N2CCN(c3ncccc3C(F)(F)F)C[C@H]2C)n1 (stereo partly drawn) [Example 764, 4-(3-chloro-4-fluorophenyl)-2-(2-methylpyrrolidin-1-yl)-6-{(2R)-2-methyl-4-[3-(trifluoromethyl)pyridin-2-yl]piperazin-1-yl}pyrimidine]
≤ 1000 | C[C@@H]1CN(c2ncccc2C(F)(F)F)CCN1c1cc(-c2ccc(F)c(Cl)c2)nc(N2CCCCC2)n1 [Example 765, 4-(3-chloro-4-fluorophenyl)-6-{(2R)-2-methyt-4-[3-(trifluoromethyl)pyridin-2-yl]piperazin-1-yl}-2-piperidin-1-ylpyrimidine]
≤ 1000 | Cc1cc(-c2cc(N3CCN(c4ncccc4C(F)(F)F)CC3)nc(N3CCC3(C)C)n2)ccc1F [Example 766, 2-(2,2-dimethylazetidin-1-yl)-4-(4-fluoro-3-methylphenyl)-6-{4-[3-(trifluoromethyl)pyridin-2-yl]piperazin-1-yl}pyrimidine]
≤ 1000 | C[C@@H]1CN(c2ncccc2Cl)CCN1c1cc(-c2ccc(F)c(F)c2)nc(N2CCCC2)n1 [Example 767, 4-[(2R)-4-(3-chloropyridin-2-yl)-2-methylpiperazin-1-yl]-6-(3,4-difluorophenyl)-2-pyrrolidin-1-ylpyrimidine]
≤ 1000 | CC1CCCN1c1nc(-c2ccc(F)c(F)c2)cc(N2CCN(c3ncccc3Cl)C[C@H]2C)n1 (stereo partly drawn) [Example 768, 4-[(2R)-4-(3-chloropyridin-2-yl)-2-methylpiperazin-1-yl]-6-(3,4-difluorophenyl)-2-(2-methylpyrrolidin-1-yl)pyrimidine]
≤ 1000 | C[C@@H]1CN(c2ncccc2Cl)CCN1c1cc(-c2ccc(F)c(F)c2)nc(N2CCCCC2)n1 [Example 769, 4-{(2R)-4-(3-chloropyridin-2-yl)-2-methylpiperazin-1-yl]-6-(3,4-difluorophenyl)-2-piperidin-1-ylpyrimidine]
≤ 1000 | Cc1cc(-c2cc(N3CCN(c4ncccc4C(F)(F)F)C[C@H]3C)nc(N3CCCCC3C)n2)ccc1F (stereo partly drawn) [Example 770, 4-(4-fluoro-3-methylphenyl)-2-(2-methylpiperidin-1-yl)-6-{(2R)-2-methyl-4-[3-(trifluoromethyl)pyridin-2-yl]piperazin-1-yl}pyrimidine]
≤ 1000 | CC1CCCCN1c1nc(-c2ccc(F)c(F)c2)cc(N2CCN(c3ncccc3Cl)C[C@H]2C)n1 (stereo partly drawn) [Example 771, 4-[(2R)-4-(3-chloropyridin-2-yl)-2-methylpiperazin-1-yl]-6-(3,4-difluorophenyl)-2-(2-methylpiperidin-1-yl)pyrimidine]
